# Test results: PMC12040169 (PLOS Biology, 2025)
# Experiment: in vitro
# Settings: human, hela cells, % viability
row,Structure (SMILES),"viability at 28.5 h, 10 µM [%]"
1,Cc1cc(C(=O)COc2cccc(-n3cnnn3)c2)c(C)n1C(C)c1ccccc1 (centres unmarked) [CBK295643],70.2
2,Cc1ccc(S(=O)(=O)N2CCC(C(=O)NC3(C(=O)O)CCCCC3)CC2)cc1 [CBK295644],109
3,Oc1ccc(CN2CCN(Cc3ccc(Br)s3)CC2)c2cccnc12 [CBK295645],89.5
4,COc1ccc(S(=O)(=O)N2CCC(C(=O)NC3(C(=O)O)CCCCC3)CC2)cc1OC [CBK295646],95.5
5,O=C(O)CCc1ccc(S(=O)(=O)Nc2ccc(N3CCCC3=O)cc2)cc1 [CBK295647],106
6,CCCn1c(SCC(=O)Nc2cc(C(C)(C)C)no2)n[nH]c1=O [CBK295648],104
7,CC(C)CCC(C)NC(=O)c1ccc(Oc2ccc(F)cc2)cc1 (centres unmarked) [CBK295650],88.3
8,Cc1c(-n2nnnc2SC(C)c2ccccc2)c(=O)n(-c2ccccc2)n1C (centres unmarked) [CBK295651],92.9
9,CCC(C)NC(=O)c1ccccc1NS(=O)(=O)c1cc(C(=O)O)cs1 (centres unmarked) [CBK295652],108
10,CC(C)(C)C(=O)NCc1ccc(C(=O)CSc2n[nH]c(=O)n2C2CC2)s1 [CBK295653],111
11,O=C1NC(=O)C(CC(=O)N2CCN(Cc3nc4ccccc4s3)CC2)S1 (centres unmarked) [CBK295654],98.3
12,O=C(O)c1csc(S(=O)(=O)Nc2ccccc2C(=O)Nc2ccc3c(c2)OCO3)c1 [CBK295655],102
13,CCc1ccc(-c2noc(CSc3n[nH]c(=O)n3CCCOC)n2)cc1 [CBK295656],95.1
14,O=C(c1ccc(Cl)cc1)c1ccc(OCC(=O)N2CCN(C(=O)c3ccco3)CC2)cc1 [CBK295658],89.2
15,O=C(CSc1nnnn1-c1ccc(O)cc1)NC1CCCC1 [CBK295659],90.6
16,CC(NC(=O)c1cn(-c2ccccc2)nc1-c1cccnc1)c1ccccn1 (centres unmarked) [CBK295660],105
17,Cc1cc(C(=O)CN(C)S(=O)(=O)c2ccc(Cl)c(Cl)c2)c(C)n1C [CBK295661],102
18,O=C(Nc1ccccc1C(=O)N1CCCC1)c1cc(=O)[nH]c2ccccc12 [CBK295664],99.2
19,CCOc1ccc(NC(=O)C2CCC(C)(C(=O)O)C2(C)C)cc1 (centres unmarked) [CBK295665],106
20,Cc1ccc(-c2n[nH]c(=S)n2CCC(=O)NC(C)c2ccc3c(c2)CCCC3)cc1 (centres unmarked) [CBK295666],90.1
21,CN(C)c1ccc(C=C2CCCC3C2=NN(C(=O)CCC(=O)O)C3c2ccc(N(C)C)cc2)cc1 (centres unmarked) [CBK296065],86.8

row,Structure (SMILES),"viability at 28.5 h, 10 µM [%]"
1,O=C(Cn1nnc2ccccc21)Nc1ccc(Cl)cn1 [CBK296068],97.9
2,COc1ccc(C=C2CCCC3C2=NN(C(=O)CCC(=O)O)C3c2ccc(OC)c(OC)c2)cc1OC (centres unmarked) [CBK296070],107
3,O=C(O)c1ccc(Nc2nc3ccccc3nc2NS(=O)(=O)c2ccc(Cl)cc2)cc1 [CBK296072],98.5
4,O=C(O)CN1C(=O)C(=Cc2ccc(-c3ccc(Br)cc3)o2)SC1=S [CBK296075],92.2
5,COc1ccc(-c2csc(NC(=O)c3ccccc3-c3ccccc3C(=O)O)n2)cc1 [CBK296076],88.6
6,O=C(O)c1cc(NS(=O)(=O)c2ccc([N+](=O)[O-])cc2)ccc1O [CBK296077],110
7,Cc1ccc(S(=O)(=O)NC(=O)NCCCCNC(=O)NS(=O)(=O)c2ccc(C)cc2)cc1 [CBK296078],102
8,O=C(O)Cc1csc(NC(=O)c2ccc(N3CCCCC3)c([N+](=O)[O-])c2)n1 [CBK296081],84.7
9,Cc1cc(NC(c2cccc([N+](=O)[O-])c2)c2ccc3cccnc3c2O)no1 (centres unmarked) [CBK296083],89.1
10,O=C(O)C=Cc1cn(-c2ccccc2)nc1-c1ccc(-c2ccc([N+](=O)[O-])cc2)o1 [CBK296088],105
11,CCC(C)C(NC(=O)c1ccccc1NC(=O)c1ccc(OC)cc1)C(=O)O (centres unmarked) [CBK296090],91.4
12,CN(C)c1ccc(C=Nc2ccc(NC(=O)CCC(=O)O)cc2)cc1 [CBK296091],92
13,COc1ccc2cc(-c3cc(C(=O)O)c4ccccc4n3)ccc2c1 [CBK296093],88.4
14,O=C(O)c1ccc(N2C(=O)C(=Cc3c4ccccc4cc4ccccc34)SC2=S)cc1 [CBK296101],85.9
15,Cc1ccc(S(=O)(=O)NC(=O)Nc2cccc(NC(=O)NS(=O)(=O)c3ccc(C)cc3)n2)cc1 [CBK296102],103
16,CCOc1cc(N2CCOCC2)c(OCC)cc1NC(=O)CSc1ccccc1C(=O)O [CBK296107],97.1
17,Cc1noc(NS(=O)(=O)c2ccc(NC(=O)c3cc(-c4ccccc4Cl)nc4ccccc34)cc2)c1C [CBK296108],80.6
18,Cc1ccc(C2=NN(c3ccccc3)C(c3cn(CCC(=O)O)nc3-c3ccccc3)C2)cc1 (centres unmarked) [CBK296110],107
19,CCCCc1ccc(NS(=O)(=O)c2ccc(C)c(C(=O)O)c2)cc1 [CBK296111],116
20,COc1ccc(-c2nn(-c3ccccc3)cc2C(=O)Nc2ccc(C(=O)O)cc2)cc1OC [CBK296112],95
21,COc1ccc(-c2cc(C(=O)OCc3ccccn3)c3ccccc3n2)cc1 [CBK296114],108

row,Structure (SMILES),"viability at 28.5 h, 10 µM [%]"
1,O=C(COC(=O)c1cc(-c2ccco2)nc2ccccc12)Nc1ccc(F)c(F)c1F [CBK296115],84.6
2,COc1ccc(-c2csc(NC(=O)NS(=O)(=O)c3ccc(C)cc3)n2)cc1 [CBK296117],88
3,COc1ccc(-c2nn(-c3ccccc3)cc2C(=O)Nc2ccc(C(=O)O)cc2)cc1 [CBK296121],106
4,O=C(O)c1ccc(NC(=O)c2cn(-c3ccccc3)nc2-c2cccnc2)cc1 [CBK296122],102
5,COc1ccc(C2=CC(c3ccc(C(F)(F)F)cc3)n3nnnc3N2)cc1OC (centres unmarked) [CBK296131],117
6,COc1ccccc1N1CCN(C(=O)CC2(CC(=O)O)CCCC2)CC1 [CBK296137],105
7,O=C(O)CSCC(=O)N(Cc1ccccc1)c1nc(-c2ccccc2)c(-c2ccccc2)s1 [CBK296138],97.5
8,COc1ccccc1NC(=O)C1=C(C)NC(SCC(=O)Nc2ccc(C(=O)O)cc2)=C(C#N)C1c1cccs1 (centres unmarked) [CBK296139],102
9,CC(=O)NS(=O)(=O)c1ccc(NC(=O)CCSc2ccc(C)cc2)cc1 [CBK296141],88.5
10,CN(C(=O)c1ccc2c(c1)NC(=O)CS2)c1ccccc1 [CBK296612],105
11,CCN(CC)Cc1cc([N+](=O)[O-])cc2c1OCOC2 [CBK296613],113
12,CC(=O)c1ccc(NC(=O)C(C)SCc2ccc(C)cc2)cc1 (centres unmarked) [CBK296616],96.7
13,CC(=O)Nc1ccccc1OCc1cc(-c2ccccc2)on1 [CBK296617],99.8
14,Cc1noc(C(C)C)c1C(=O)NC(C)c1cccc(Br)c1 (centres unmarked) [CBK296618],92.8
15,CC(NC(=O)c1ccc(-n2cccc2)cc1)c1ccccn1 (centres unmarked) [CBK296619],91.4
16,COc1cc(OC)c(NS(=O)(=O)c2ccc(C(=O)O)cc2)cc1Cl [CBK296620],97.5
17,COc1ccc2c(-c3ccccc3)cc(=O)n(CCS(=O)(=O)Oc3ccccc3)c2c1 [CBK296621],84.6
18,O=C(c1ccc(OC(F)(F)F)cc1)N1CCN(c2nnnn2-c2ccccc2)CC1 [CBK296622],93.5
19,CCOC(=O)c1sc(NS(=O)(=O)c2ccc(C(=O)O)cc2)cc1C [CBK296623],100
20,COc1ccc(COC(=O)C2CC(=O)N(Cc3ccc(C)cc3)C2)cc1 (centres unmarked) [CBK296624],89
21,Cc1nc2c(cc(OCC(O)COc3ccc(C#N)cc3)c3ccsc32)s1 (centres unmarked) [CBK296632],84.6

row,Structure (SMILES),"viability at 28.5 h, 10 µM [%]"
1,Cc1cccc(-c2n[nH]c(=S)n2CC(=O)Nc2cccc(C#Cc3ccccn3)c2)c1 [CBK296633],92.8
2,COc1cccc(CC(=O)Nc2nc(Cc3n[nH]c(=S)n3C)cs2)c1 [CBK296634],98.5
3,COc1cc(NC(=O)CC2(CC(=O)O)CCCCC2)ccc1N1CCCC1=O [CBK296637],105
4,Cc1ccc(S(=O)(=O)Nc2cccc(NC(=O)c3ccco3)c2)cc1C(=O)O [CBK296638],105
5,O=C(Nc1ccccc1C(=O)NCCCc1nc2ccccc2[nH]1)c1cccs1 [CBK296641],107
6,CN(CCCn1c(=S)[nH]c2ccccc2c1=O)C1CCCCC1 [CBK296642],103
7,Cc1oc2nc(CSc3ccc4ccccc4c3)[nH]c(=O)c2c1C(=O)O [CBK296645],92.4
8,CC(C)CCCC(C)NC(=O)COc1cc(C(=O)O)cc(C(=O)O)c1 (centres unmarked) [CBK296646],86.8
9,Cc1nc2ccc(C(=O)N3CCN(C(=O)c4ccc(Cl)cc4)CC3)cc2nc1C [CBK296647],85
10,CCOc1ccc(N2C(=O)CC(Nc3cc(C(=O)O)ccc3C)C2=O)cc1 (centres unmarked) [CBK296651],97.1
11,CC(C)(C)C(=O)NCCCC(=O)Nc1nc2ccc(Oc3ccccc3)cc2s1 [CBK296652],97.9
12,CCCCn1c(SCC(O)COCc2ccc(OC)c(OC)c2)n[nH]c1=O (centres unmarked) [CBK296653],99.3
13,Cc1cc(CN2CCN(c3nc(-c4ccccc4)nc4ccccc34)CC2)no1 [CBK296654],87.7
14,COc1ccc(NC(=O)CCSCCC(=O)O)cc1S(=O)(=O)N1CCCCC1 [CBK296655],80.3
15,CC(=O)Nc1ccc(NC(=O)CCn2c(-c3cccc(C)c3)n[nH]c2=S)cc1Cl [CBK296656],99.3
16,Cc1nc(C(=O)N(C)C(C)c2cc3ccccc3o2)nn1-c1ccc(F)cc1 (centres unmarked) [CBK296657],108
17,O=C(O)c1ccc(S(=O)(=O)Nc2ccc(OC3CCCC3)cc2)cc1 [CBK296658],110
18,O=C(CCNS(=O)(=O)c1ccccc1)OCc1ccc([N+](=O)[O-])cc1 [CBK296659],94.4
19,CC(=O)c1ccc(C(=O)N(C)Cc2ccc(F)cc2)s1 [CBK296660],99.8

# Same assay, conditions: human, hela cells, % viability, bulk resorufin, single well
row,Structure (SMILES),"viability at 28.5 h, 10 µM [%]"
1,O=C(O)C=CC(=O)Nc1ccc(SC(F)(F)C(F)(F)C(F)(F)F)cc1 [CBK296104],107
